Source: US20080004325A1, “PTP1B inhibitors” (Wyeth, priority 2006, published 2008)

molecular target: T1, catalytic domain of human PTP1b (residues 1-299) (Homo sapiens, UniProt P18031); assay: PTP1b pNPP hydrolysis inhibition assay; type: biochemical; settings: pNPP substrate, 25° C., pH 7.0, three fixed inhibitor concentrations; read-out: Ki Micromolar
T1 construct: catalytic domain of human PTP1b (residues 1-299); made in house; host or cells: E. coli
T1 sequence (P18031 1-299): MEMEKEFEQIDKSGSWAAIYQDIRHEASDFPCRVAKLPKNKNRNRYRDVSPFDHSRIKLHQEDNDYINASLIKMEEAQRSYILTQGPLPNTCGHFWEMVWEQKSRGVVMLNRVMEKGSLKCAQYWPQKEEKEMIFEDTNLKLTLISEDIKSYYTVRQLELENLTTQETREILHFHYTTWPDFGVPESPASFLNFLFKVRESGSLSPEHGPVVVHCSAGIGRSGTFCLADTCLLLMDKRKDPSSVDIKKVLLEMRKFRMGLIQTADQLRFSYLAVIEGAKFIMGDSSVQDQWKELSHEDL
Experimental: The p-nitrophenyl phosphate (pNPP) substrate was purchased from Sigma. PTPase activity was measured at room temperature (25° C.) in a 200 ul reaction mixture with various concentrations of substrate. Reactions began with enzyme addition and were quenched after 2-3 minutes with 1N NaOH. Background hydrolysis of pNPP was measured without addition of enzyme. […] All experiments were performed in 50 mM 3,3-dimethylglutarate buffer (pH 7.0), with 10 mM DTT, 1 mM EDTA, and with the ionic strength adjusted to 0.15 M with NaCl. All solutions were prepared in distilled, deionized water. For initial evaluation of each compound, percent inhibition was determined for two concentrations of compound (for example at 200 uM and 20 uM) at a fixed pNPP concentration.
Percent inhibition was determined following background subtraction of the non-enzymatic hydrolysis rate compared to no inhibitor (DMSO only) controls. Inhibition constants and inhibition patterns were evaluated using the direct curve-fitting program GraFit (Erithacus Software Limited).

SMILES | Ki [µM]
CC1C(=O)NS(=O)(=O)N1c1csc(-c2ccccc2)c1 (stereo not shown) [4-methyl-5-(5-phenyl-3-thienyl)-1,2,5-thiadiazolidin-3-one 1,1-dioxide] | > 1000
Cc1c(N2CC(=O)NS2(=O)=O)csc1-c1ccccc1 [5-(4-methyl-5-phenyl-3-thienyl)-1,2,5-thiadiazolidin-3-one 1,1-dioxide] | 41
O=C1CN(c2csc(-c3ccccc3)c2)S(=O)(=O)N1 [5-(5-phenyl-3-thienyl)-1,2,5-thiadiazolidin-3-one 1,1-dioxide] | 150
Cc1c(N2CC(=O)NS2(=O)=O)csc1-c1cccc([N+](=O)[O-])c1 [5-[4-methyl-5-(3-nitrophenyl)-3-thienyll-1,2,5-thiadiazolidin-3-one 1,1-dioxide] | 34

Now those with a lower Ki, led by results:

Ki [µM] | SMILES
15 | Cc1c(N2CC(=O)NS2(=O)=O)csc1-c1cccc(NC2CC(C)(C)CC(C)(C)C2)c1
12 | O=C1CN(c2csc(-c3cccc(NC4CCCCC4)c3)c2)S(=O)(=O)N1 [5-5-[3-(cyclohexylamino)phenyl]-3-thienyl}-1,2,5-thiadiazolidin-3-one 1,1-dioxide]
18 | O=C1CN(c2csc(-c3ccccc3)c2Br)S(=O)(=O)N1 [5-(4-bromo-5-phenyl-3-thienyl)-1,2,5-thiadiazolidin-3-one 1,1-dioxide]
4 | Cc1c(N2CC(=O)NS2(=O)=O)csc1-c1cccc(NC2CCN(S(=O)(=O)Cc3ccccc3)CC2)c1 [5-[5-(3-{[1-(benzylsulfonyl)piperidine-4-yl]amino}phenyl)-4-methyl-3-thienyl]-1,2,5-thiadiazolidin-3-one 1,1-dioxide]
14 | O=C1CN(c2csc(-c3cccc(NC4CCCCC4)c3)c2Cl)S(=O)(=O)N1 [5-{4-chloro-5-[3-(cyclohexylamino)phenyl]-3-thienyl}-1,2,5-thiadiazolidin-3-one 1,1-dioxide]
1.7 | NS(=O)(=O)N(c1cccc(-c2scc(N3CC(=O)NS3(=O)=O)c2Cl)c1)C1CCCCC1 [N-{3-[3-chloro-4-(1,1-dioxido-4-oxo-1,2,5-thiadiazolidin-2-yl)-2-thienyl]phenyl}-N-cyclohexylsulfamide]
